Data taken from US10301305B2 (priority 2014, dated 2019).

How the values were obtained:
Type in all cases: biochemical
S. Agalactiae DltA = S. Agalactiae DltA (Streptococcus agalactiae serotype III (strain NEM316), UniProt Q8VM67); assay: in vitro DltA activity assay (luminescence), S. agalactiae DltA; settings: recombinant DltA, 30 min pre-incubation, 0.5 mM D-Alanine, 0.5-5 μM ATP; read-out: S. Agalactiae DltA IC50
Method: (§1) The effect of the compounds of the invention on DltA enzymes has been based on the measure of their inhibition of DltA activity in vitro. To this end, recombinant proteins DltA were expressed and purified after cloning of the genes of S. aureus, E. faecalis, E. faecium and S. agalactiae as described thereafter. The capacity of the compounds of the invention to inhibit DltA enzymatic activity was assessed using the DltA assays as described below:
(§2) The dltA gene was amplified from chromosomal DNA of S. aureus, E. faecalis, E. faecium and S. agalactiae and introduced into E. coli BL21 (Invitrogen, Carlsbad, Calif.) following manufacturer's instruction. Bacteria were grown at 37° C. under aerobic conditions and isopropyl-beta-D-thiogalactopyranoside (IPTG) was added to 0.5-1 mM when OD600 of the bacterial culture had reached 0.5. After a further incubation for 3 hours, cells were harvested by centrifugation. Purification of the recombinant DltA protein was performed by affinity chromatography on nickel-nitrilotriacetic acid (Ni-NTA) column following manufacturer's instructions (Qiagen). Fractions containing recombinant DltA protein were adjusted to 50% glycerol and stored at −20° C. until use.
(§3) The binding potency of the inhibitors against DltA enzyme was assessed by IC50 determination in an in vitro DltA activity assay. The assay buffer “AB” contained 50 mM Hepes pH8.0, 10 mM MgCl2, 50 mM KCl, 0.012% Triton-X100, 10 mM DTT and 100 nM Myelin-basic protein. The following components were added in a white polystyrene Costar plate up to a final volume of 30 μL: 3 μL DMSO, or inhibitor dissolved in DMSO and 27 μL DltA enzyme in AB. After 30 min of pre-incubation at room temperature, 30 μL of Substrates mix in AB were added in each well to a final volume of 60 μL. This reaction mixture was then composed of DltA (produced in house from S. aureus, E. faecalis, E. faecium and S. agalactiae), 0.5 mM D-Alanine (Sigma), 0.5-5 μM ATP (Sigma) and 0.05 u/ml inorganic pyrophosphatase (Sigma) in assay buffer. After typically 1-2 hours of incubation at room temperature (conversion rate around 30%), 30 μL of the revelation mix were added to a final volume of 90 μL, including the following constituents at the respective final concentrations: 10000 u/ml luciferase (Sigma), 30 μM D-luciferin (Sigma), 100 μM N-acetylcysteamine (Aldrich). Luminescence intensity was immediately measured on a Fluostar Optima (BMG) (excitation 360 nm, emission 520 nm) and converted into inhibition percentages. For IC50 determinations (Inhibitory Concentration 50%) the inhibitor was added at 6 to 10 different concentrations and the related inhibitions were fitted to a classical Langmuir equilibrium model using XLFIT (IDBS).
(§4) For compounds interfering with the luminescent signal (quenching), the same experiment without DltA enzyme was performed to allow quenching determination and correction.

S. aureus DltA = S. aureus DltA (Staphylococcus aureus (strain NCTC 8325 / PS 47), UniProt Q2FZW6); assay: in vitro DltA activity assay (luminescence), S. aureus DltA; settings: recombinant DltA, 30 min pre-incubation, 0.5 mM D-Alanine, 0.5-5 μM ATP; read-out: S. aureus DltA IC50
Method: as §1, §2, §3, §4

E. feacium DltA = E. feacium DltA (Enterococcus faecium, UniProt Q3XZT7); assay: in vitro DltA activity assay (luminescence), E. faecium DltA; settings: recombinant DltA, 30 min pre-incubation, 0.5 mM D-Alanine, 0.5-5 μM ATP; read-out: E. feacium DltA IC50
Chain of E. feacium DltA (Q3XZT7 1-504): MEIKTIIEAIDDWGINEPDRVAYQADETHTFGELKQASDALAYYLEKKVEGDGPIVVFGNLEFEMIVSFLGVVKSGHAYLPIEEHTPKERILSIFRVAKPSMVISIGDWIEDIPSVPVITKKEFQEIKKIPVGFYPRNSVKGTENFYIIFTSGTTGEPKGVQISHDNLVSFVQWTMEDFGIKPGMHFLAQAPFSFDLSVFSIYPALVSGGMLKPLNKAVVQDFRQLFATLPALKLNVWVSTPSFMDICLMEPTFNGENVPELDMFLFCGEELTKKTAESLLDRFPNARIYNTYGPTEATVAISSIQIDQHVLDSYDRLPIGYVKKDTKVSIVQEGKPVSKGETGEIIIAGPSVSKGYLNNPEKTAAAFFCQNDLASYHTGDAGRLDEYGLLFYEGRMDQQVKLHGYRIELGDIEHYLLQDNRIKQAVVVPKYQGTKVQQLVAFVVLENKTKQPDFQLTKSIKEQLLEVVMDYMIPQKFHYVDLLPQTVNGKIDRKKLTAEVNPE
Method: as §1, §2, §3, §4

E. feacalis DltA = E. feacalis DltA (Enterococcus faecalis, UniProt Q830N0); assay: in vitro DltA activity assay (luminescence), E. faecalis DltA; settings: recombinant DltA, 30 min pre-incubation, 0.5 mM D-Alanine, 0.5-5 μM ATP; read-out: E. feacalis DltA IC50
Chain of E. feacalis DltA (Q830N0 1-506): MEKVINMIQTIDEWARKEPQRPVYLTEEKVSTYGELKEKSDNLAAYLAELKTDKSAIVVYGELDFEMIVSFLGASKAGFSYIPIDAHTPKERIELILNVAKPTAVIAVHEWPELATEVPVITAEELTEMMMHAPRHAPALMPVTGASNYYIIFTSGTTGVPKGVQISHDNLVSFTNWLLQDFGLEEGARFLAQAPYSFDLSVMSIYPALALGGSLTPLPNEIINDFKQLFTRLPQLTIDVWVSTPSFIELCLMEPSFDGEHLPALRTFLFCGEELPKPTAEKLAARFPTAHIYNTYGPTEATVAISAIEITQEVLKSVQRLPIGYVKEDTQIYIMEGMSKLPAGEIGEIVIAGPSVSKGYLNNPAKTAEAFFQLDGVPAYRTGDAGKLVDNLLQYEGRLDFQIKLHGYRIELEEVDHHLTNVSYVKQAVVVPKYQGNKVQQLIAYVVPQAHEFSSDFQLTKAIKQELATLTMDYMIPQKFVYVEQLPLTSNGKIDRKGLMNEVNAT
Method: as §1, §2, §3, §4

Compound | IC50 (S. Agalactiae DltA) [nM] | IC50 (S. aureus DltA) [nM] | IC50 (E. feacium DltA) [nM] | IC50 (E. feacalis DltA) [nM]
O=C(O)c1c(N2CC[C@H](CO)C2)cc(-c2ccc3c(c2)ncn3C2CCCCC2)c2nc[nH]c12 [Example 55, 1′-Cyclohexyl-6-((S)-3-hydroxymethyl-pyrrolidin-1-yl)-1H,1′H-[4,5′]bibenzimidazolyl-7-carboxylic acid] | 760 | 250 | 360 | 150
N#Cc1c(N2CC[C@H](CO)C2)cc(-c2ccc3c(c2)ncn3C2CCCCC2)c2nc[nH]c12 [Example 58, 1′-Cyclohexyl-6-((S)-3-hydroxymethyl-pyrrolidin-1-yl)-1H,1′H-[4,5′]bibenzimidazolyl-7-carbonitrile] | 8600 | 180 | 230 | 120
O=[N+]([O-])c1c(N2CC[C@H](CO)C2)cc(-c2ccc3c(c2)ncn3C2CCCCC2)c2nc[nH]c12 [Example 43, [(S)-1-(1′-Cyclohexyl-7-nitro-1H,1′H-[4,5′]bibenzimidazolyl-6-yl)-pyrrolidin-3-yl]-methanol] | 6300 | 85 | 170 | 30
CN(C)C1CCCN(c2cc(-c3cnc4c(c3)CCCO4)c3nc[nH]c3c2C(N)=O)C1 (stereo not drawn) [Example 222, 7-(3,4-dihydro-2H-pyrano[2,3-b]pyridin-6-yl)-5-[3-(dimethylamino)-1-piperidyl]-3H-benzimidazole-4-carboxamide] | 180 | 47 | 67 | 9
c1nc2c(-c3ccc4c(c3)ncn4C3CCCCC3)nc(N3CC4CNCC4C3)cc2[nH]1 (stereo not drawn) [Example 24, 4-(1-Cyclohexyl-1H-benzimidazol-5-yl)-6-(hexahydro-pyrrolo[3,4-c]pyrrol-2-yl)-1H-imidazo[4,5-c]pyridine] | 5200 | 38 | 3700 | 570
CN(CCO)c1cc(-c2ccc3c(c2)ncn3C2CCCCC2)c2nc[nH]c2c1C#N [Example 92] | 8200 | 190 | 600 | 240
OCC1(CO)CCN(c2cc(-c3ccc4c(c3)ncn4C3CCCCC3)c3nc[nH]c3n2)CC1 [Example 6, {1-[7-(1-Cyclohexyl-1H-benzimidazol-5-yl)-3H-imidazo[4,5-b]pyridin-5-yl]-4-hydroxymethyl-piperidin-4-yl}-methanol] | 180 | 11 | 29 | 18
CN(C)CC1CCCN1c1cc(-c2ccc3c(c2)ncn3C2CCCCC2)c2nc[nH]c2c1C(N)=O (stereo not drawn) [Example 126, 1′-Cyclohexyl-6-(2-dimethylaminomethyl-pyrrolidin-1-yl)-1H,1′H-[4,5′]bibenzimidazolyl-7-carboxamide] | 1800 | 57 | 240 | 56
NC(=O)c1c(N2CC[C@H](CO)C2)cc(-c2ccc3c(c2)ncn3C2CCCCC2)c2nc[nH]c12 [Example 64, 1′-Cyclohexyl-6-((S)-3-hydroxymethyl-pyrrolidin-1-yl)-1H,1′H-[4,5′]bibenzimidazolyl-7-carboxamide] | 710 | 65 | 68 | 27
c1nc2c(-c3ccc4c(c3)ncn4C3CCCCC3)cc(N3CC4CNCC4C3)cc2[nH]1 (stereo not drawn) [Example 36, 1′-Cyclohexyl-6-(hexahydro-pyrrolo[3,4-c]pyrrol-2-yl)-1H,1′H-[4,5′]bibenzimidazolyl] | 3800 | 80 | 1100 | 170
CN(CCO)c1cc(-c2ccc3c(c2)ncn3C2CCCCC2)c2nc[nH]c2c1C(N)=O [Example 117, 1′-Cyclohexyl-6-[(2-hydroxy-ethyl)-methyl-amino]-1H,1′H-[4,5′]bibenzimidazolyl-7-carboxamide] | 560 | 23 | 27 | 16
CN(C)CCN(C)c1cc(-c2ccc3c(c2)ncn3CC(F)F)c2nc[nH]c2c1C(N)=O [Example 163, 1′-(2,2-Difluoro-ethyl)-6-[(2-dimethylamino-ethyl)-methyl-amino]-1H,1′H-[4,5′]bibenzimidazolyl-7-carboxamide] | 780 | 14 | 34 | 5.4
OC[C@H]1CCN(c2cc3[nH]cnc3c(-c3ccc4c(c3)ncn4C3CCCCC3)n2)C[C@@H]1O [Example 19, (3R,4R)-1-[4-(1-Cyclohexyl-1H-benzimidazol-5-yl)-1H-imidazo[4,5-c]pyridin-6-yl]-4-hydroxymethyl-piperidin-3-ol] | 1900 | 33 | 1800 | 460
CN(C)CCOc1cc(-c2ccc3c(c2)ncn3C2CCCCC2)c2nc[nH]c2c1C#N [Example 104] | 2400 | 53 | 390 | 84
OCCNc1cc(-c2ccc3c(c2)ncn3C2CCCCC2)c2nc[nH]c2n1 [Example 4, 2-[7-(1-Cyclohexyl-1H-benzimidazol-5-yl)-3H-imidazo[4,5-b]pyridin-5-ylamino]-ethanol] | 3100 | 520 | 2200 | 380
CCn1cnc2cc(-c3cc(N(C)CCN(C)C)c(C(N)=O)c4[nH]cnc34)cc(F)c21 [Example 227, 5-[2-(dimethylamino)ethyl-methyl-amino]-7-(1-ethyl-7-fluoro-benzimidazol-5-yl)-3H-benzimidazole-4-carboxamide] | 1300 | 32 | 83 | 30
CN(C)CCN(C)c1cc(-c2cnc3c(c2)CCCO3)c2nc[nH]c2c1C(N)=O [Example 144, 7-(3,4-Dihydro-2H-pyrano[2,3-b]pyridin-6-yl)-5-[(2-dimethylamino-ethyl)-methyl-amino]-3H-benzimidazole-4-carboxamide] | 630 | 39 | 120 | 17
OCC1CCN(c2cc(-c3ccc4c(c3)ncn4C3CCCCC3)c3nc[nH]c3n2)CC1 [Example 3, {1-[7-(1-Cyclohexyl-1H-benzimidazol-5-yl)-3H-imidazo[4,5-b]pyridin-5-yl]-piperidin-4-yl}-methanol] | 1400 | 200 | 100 | 52
